Key:
Type in all cases: in vivo
[1] = system: ducksalad (Heteranthera limosa); assay: Test B flooded paddy test; settings: 250 g ai/ha, Flood; visual rating on scale of 0 to 100 where 0 is no effect and 100 is complete control; 13 to 15 d after treatment
Outline: (§1)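 Plants grown to the 2-leaf stage. At treatment, pots were flooded to 3 cm above the soil, compound was applied directly to the paddy water, and that depth was held throughout. After 13 to 15 d in the greenhouse, response was rated visually against controls on a 0 (no effect) to 100 (complete control) scale.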

[2] = system: barnyardgrass (Echinochloa crus-galli); assay: Test B flooded paddy test; settings: 250 g ai/ha, Flood; visual rating on scale of 0 to 100 where 0 is no effect and 100 is complete control; 13 to 15 d after treatment
Outline: as §1

rice (Oryza sativa) = assay: Test B flooded paddy test; settings: 250 g ai/ha, Flood; visual rating on scale of 0 to 100 where 0 is no effect and 100 is complete control; 13 to 15 d after treatment
Outline: as §1

[3] = system: sedge, umbrella (small-flower umbrella sedge, Cyperus difformis); assay: Test B flooded paddy test; settings: 250 g ai/ha, Flood; visual rating on scale of 0 to 100 where 0 is no effect and 100 is complete control; 13 to 15 d after treatment
Outline: as §1

[4] = system: blackgrass (Alopecurus myosuroides); assay: Test A greenhouse herbicide test, postemergence
Outline: (§2)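 Visual injury score, 0 (no effect) to 100 (complete control), versus untreated controls roughly 10 d after postemergence spray; plants at one- to two-leaf stage, 2 to 10 cm tall, in loam soil and sand, kept in greenhouse.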

[5] = system: galium (catchweed bedstraw, Galium aparine); assay: Test A greenhouse herbicide test, postemergence
Outline: as §2

[6] = system: barnyardgrass (Echinochloa crus-galli); assay: Test A greenhouse herbicide test, pre- and postemergence
Outline: (§3)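 Seeds in loam–sand blend received a preemergence directed soil spray; plants at 2–10 cm, one- to two-leaf stage, received postemergence sprays. Compounds in a non-phytotoxic solvent with surfactant. After about 10 d in a greenhouse, injury rated visually versus untreated controls on a 0–100 scale (100 = complete control).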

[7] = system: ragweed (common ragweed, Ambrosia elatior); assay: as above
Outline: as §3

[8] = system: pigweed (Amaranthus retroflexus); assay: as above
Outline: as §3

[9] = system: wheat (Triticum aestivum); assay: as above; settings: Postemergence
Outline: as §3

corn (Zea mays) = assay: as above; settings: Postemergence
Outline: as §3

kochia (Kochia scoparia) = assay: as above
Outline: as §3

[10] = system: ryegrass, Italian (Italian ryegrass, Lolium multiflorum); assay: as above
Outline: as §3

[11] = system: foxtail, giant (giant foxtail, Setaria faberii); assay: as above
Outline: as §3

[12] = 125 g ai/ha, 0 to 100 scale where 0 is no effect and 100 is complete control
[13] = 500 g ai/ha, visual rating after approx. 10 d, 0 to 100 scale (0 no effect, 100 complete control)
[14] = Postemergence, 125 g ai/ha, 0 to 100 scale where 0 is no effect and 100 is complete control
[15] = Postemergence, 500 g ai/ha, visual rating after approx. 10 d, 0 to 100 scale (0 no effect, 100 complete control)
[16] = Preemergence, 125 g ai/ha, 0 to 100 scale where 0 is no effect and 100 is complete control
[17] = Preemergence, 500 g ai/ha, 0 to 100 scale where 0 is no effect and 100 is complete control
[18] = 125 g ai/ha, 0 to 100 scale, 0 no effect, 100 complete control
[19] = Postemergence, 125 g ai/ha, 0 to 100 scale, 0 no effect, 100 complete control
[20] = Preemergence, 125 g ai/ha, visual injury rating, 0 to 100 scale (0 no effect, 100 complete control), approx. 10 d

Compound	Plant response rating, Ducksalad [1]	Plant response rating, Barnyardgrass [2]	Plant response rating, Rice (rice (Oryza sativa))	Plant response rating, Sedge, Umbrella [3]	Plant response rating, Blackgrass [4, 13]	Plant response rating, Galium [5, 13]	Plant response rating, Barnyardgrass [6, 15]	Plant response rating, Barnyardgrass [6, 17]	Plant response rating, Ragweed [7, 15]	Plant response rating, Ragweed [7, 17]	Plant response rating, Pigweed [8, 15]	Plant response rating, Pigweed [8, 17]	Plant response rating, Wheat [9, 13]	Plant response rating, Corn (corn (Zea mays); [13])	Plant response rating, Kochia (kochia (Kochia scoparia); [15])	Plant response rating, Kochia (kochia (Kochia scoparia); [17])	Plant response rating, Ryegrass, Italian [10, 15]	Plant response rating, Ryegrass, Italian [10, 17]	Plant response rating, Foxtail, Giant [11, 15]	Plant response rating, Foxtail, Giant [11, 17]	other results
Cc1ccc2ccccc2c1-c1c(OC(=O)C(C)(C)C)c(C#N)nn(C)c1=O [Compound 128]	30	0	0	0	20	70	80	90	30	70	90	100	0	0	0	0	50	30	70	90	Plant response rating, Blackgrass [4, 12]: 0; Plant response rating, Galium [5, 12]: 40; Plant response rating, Barnyardgrass [6, 14]: 50; Barnyardgrass plant response rating [6, 16]: 50; Plant response rating, Ragweed [7, 14]: 10; Ragweed plant response rating [7, 16]: 70; Plant response rating, Pigweed [8, 14]: 70; Pigweed plant response rating [8, 16]: 90; Plant response rating, Wheat [9, 12]: 0; Plant response rating, Corn (corn (Zea mays); [12]): 0; Plant response rating, Kochia (kochia (Kochia scoparia); [14]): 0; Kochia plant response rating (kochia (Kochia scoparia); [16]): 0; Plant response rating, Ryegrass, Italian [10, 14]: 20; Ryegrass, Italian plant response rating [10, 16]: 10; Plant response rating, Foxtail, Giant [11, 14]: 50; Foxtail, Giant plant response rating [11, 16]: 80
COC(=O)Oc1c(C)nn(C)c(=O)c1-c1c(C(F)(F)F)ccc2ccccc12 [Compound 149]	0	0	0	0	70	100	20	70	90	90	100	100	70	30	100	90	100	90	80	90	Plant response rating, Blackgrass [4, 12]: 30; Plant response rating, Galium [5, 12]: 90; Plant response rating, Barnyardgrass [6, 14]: 20; Barnyardgrass plant response rating [6, 16]: 0; Plant response rating, Ragweed [7, 14]: 90; Plant response rating, Pigweed [8, 14]: 90; Pigweed plant response rating [8, 16]: 100; Plant response rating, Wheat [9, 12]: 20; Plant response rating, Corn (corn (Zea mays); [12]): 20; Plant response rating, Kochia (kochia (Kochia scoparia); [14]): 80; Kochia plant response rating (kochia (Kochia scoparia); [16]): 40; Plant response rating, Ryegrass, Italian [10, 14]: 70; Plant response rating, Foxtail, Giant [11, 14]: 40; Foxtail, Giant plant response rating [11, 16]: 30
CCC(=O)Oc1c(Br)nn(C)c(=O)c1-c1c(C)ccc2ccccc12 [Compound 156]	60	0	0	75	90	100	90	100	100	90	100	100	60	30	100	100	100	100	90	90	Plant response rating, Blackgrass [4, 18]: 60; Plant response rating, Galium [5, 18]: 100; Plant response rating, Barnyardgrass [6, 19]: 70; Plant response rating, Barnyardgrass [6, 20]: 70; Plant response rating, Ragweed [7, 19]: 90; Plant response rating, Ragweed [7, 20]: 90; Plant response rating, Pigweed [8, 19]: 90; Plant response rating, Pigweed [8, 20]: 100; Plant response rating, Wheat [9, 18]: 30; Plant response rating, Corn (corn (Zea mays); [18]): 0; Plant response rating, Kochia (kochia (Kochia scoparia); [19]): 80; Plant response rating, Kochia (kochia (Kochia scoparia); [20]): 50; Plant response rating, Ryegrass, Italian [10, 19]: 90; Plant response rating, Ryegrass, Italian [10, 20]: 90; Plant response rating, Foxtail, Giant [11, 19]: 90; Plant response rating, Foxtail, Giant [11, 20]: 80
Cc1nn(C)c(=O)c(-c2ccc(Cl)c3ccccc23)c1OS(=O)(=O)C(F)(F)F [Compound 158]	0	0	20	65	60	90	50	60	100	80	100	100	0	0	100	40	100	80	60	40	Plant response rating, Blackgrass [4, 18]: 50; Plant response rating, Galium [5, 18]: 80; Plant response rating, Barnyardgrass [6, 19]: 10; Plant response rating, Barnyardgrass [6, 20]: 10; Plant response rating, Ragweed [7, 19]: 90; Plant response rating, Ragweed [7, 20]: 50; Plant response rating, Pigweed [8, 19]: 80; Plant response rating, Pigweed [8, 20]: 10; Plant response rating, Wheat [9, 18]: 0; Plant response rating, Corn (corn (Zea mays); [18]): 0; Plant response rating, Kochia (kochia (Kochia scoparia); [19]): 90; Plant response rating, Kochia (kochia (Kochia scoparia); [20]): 30; Plant response rating, Ryegrass, Italian [10, 19]: 90; Plant response rating, Ryegrass, Italian [10, 20]: 80; Plant response rating, Foxtail, Giant [11, 19]: 30; Plant response rating, Foxtail, Giant [11, 20]: 10
Cc1nn(C)c(=O)c(-c2ccc(Cl)c3ccccc23)c1OC(=O)C(F)(F)F [Compound 159]	0	0	0	50	70	100	80	80	100	80	80	100	30	40	100	100	100	100	80	80	Plant response rating, Blackgrass [4, 18]: 70; Plant response rating, Galium [5, 18]: 100; Plant response rating, Barnyardgrass [6, 19]: 40; Plant response rating, Barnyardgrass [6, 20]: 50; Plant response rating, Ragweed [7, 19]: 100; Plant response rating, Ragweed [7, 20]: 80; Plant response rating, Pigweed [8, 19]: 60; Plant response rating, Pigweed [8, 20]: 100; Plant response rating, Wheat [9, 18]: 0; Plant response rating, Corn (corn (Zea mays); [18]): 20; Plant response rating, Kochia (kochia (Kochia scoparia); [19]): 100; Plant response rating, Kochia (kochia (Kochia scoparia); [20]): 100; Plant response rating, Ryegrass, Italian [10, 19]: 100; Plant response rating, Ryegrass, Italian [10, 20]: 100; Plant response rating, Foxtail, Giant [11, 19]: 50; Plant response rating, Foxtail, Giant [11, 20]: 60

— US10597388B2, “Pyridazinone herbicides” (FMC CORPORATION, priority 2014, dated 2020)
